Experimental data taken from ChEMBL document CHEMBL1201862, “PubChem BioAssay data set” (2004).
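1) Cells in 96-well plates. 2) Compound, 48 h, 5 concentrations. 3) Linear interpolation between surrounding doses. 4) Unreached endpoint = highest concentration. GI50 marks 50% less growth.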 Active and inactive are the calls of the source. Rule as the data show it: active = GI50 up to about 1.1 µM and inactive = higher.

Assays:
Assay in all cases: inhibition of tumour cell growth, NCI panel, 48 h
A549 = test system: A549
EKVX = test system: EKVX
786-0 = test system: 786-0
NCI-H522 = test system: NCI-H522
SW-620 = test system: SW-620
IGROV-1 = test system: IGROV-1
HL-60 = test system: HL-60
SK-MEL-28 = test system: SK-MEL-28
SN12C = test system: SN12C
SF-268 = test system: SF-268
SNB-75 = test system: SNB-75
PC-3 = test system: PC-3
ACHN = test system: ACHN
T47D = test system: T47D
MDA-N = test system: MDA-N
OVCAR-5 = test system: OVCAR-5
RPMI-8226 = test system: RPMI-8226
Hs-578T = test system: Hs-578T
KM12 = test system: KM12
OVCAR-4 = test system: OVCAR-4
DU-145 = test system: DU-145
OVCAR-8 = test system: OVCAR-8
NCI-H460 = test system: NCI-H460
NCI-H226 = test system: NCI-H226
COLO 205 = test system: COLO 205
CCRF-CEM = test system: CCRF-CEM
K562 = test system: K562
SF-295 = test system: SF-295
SR = test system: SR
SK-MEL-5 = test system: SK-MEL-5
SK-MEL-2 = test system: SK-MEL-2
HCT-15 = test system: HCT-15
MOLT-4 = test system: MOLT-4
NCI-H23 = test system: NCI-H23
LOX IMVI = test system: LOX IMVI
HOP-92 = test system: HOP-92
U-251 = test system: U-251
MCF7 = test system: MCF7
MDA-MB-435 = test system: MDA-MB-435
SK-OV-3 = test system: SK-OV-3
UACC-62 = test system: UACC-62
HOP-62 = test system: HOP-62
NCI/ADR-RES = test system: NCI/ADR-RES
UACC-257 = test system: UACC-257
HCT-116 = test system: HCT-116
UO-31 = test system: UO-31
SNB-19 = test system: SNB-19
CAKI-1 = test system: CAKI-1
RXF 393 = test system: RXF 393
A498 = test system: A498
Malme-3M = test system: Malme-3M
M14 = test system: M14
OVCAR-3 = test system: OVCAR-3
SF-539 = test system: SF-539
MDA-MB-231 = test system: MDA-MB-231
TK-10 = test system: TK-10
BT-549 = test system: BT-549
HT-29 = test system: HT-29

Measured: GI50

Cc1ccc2c(=O)cc(-c3ccc(-c4ccccc4)s3)[nH]c2n1
active: UO-31 0.0305 µM
> 28.8 µM: HCT-15
inactive: A549 58.6 µM | EKVX 27.2 µM | 786-0 16.1 µM | NCI-H522 > 19.7 µM | SW-620 > 31.5 µM | IGROV-1 34.9 µM | HL-60 > 23.6 µM | SK-MEL-28 > 100 µM | SN12C 58.6 µM | SF-268 > 63 µM | SNB-75 72.4 µM | PC-3 6.03 µM | ACHN > 100 µM | T47D > 76.7 µM | MDA-N 4.98 µM | OVCAR-5 > 100 µM | RPMI-8226 4.53 µM | Hs-578T > 46.7 µM | KM12 > 24.5 µM | OVCAR-4 38.5 µM | DU-145 > 100 µM | OVCAR-8 > 58.3 µM | NCI-H460 > 59.7 µM | NCI-H226 29.1 µM | COLO 205 > 100 µM | CCRF-CEM > 25.2 µM | K562 11.9 µM | SF-295 > 28.8 µM | SR 2.43 µM | SK-MEL-5 2.87 µM | SK-MEL-2 > 100 µM | MOLT-4 4.18 µM | NCI-H23 22.1 µM | LOX IMVI > 48.3 µM | HOP-92 > 41.2 µM | U-251 16.4 µM | MCF7 3.27 µM | MDA-MB-435 5.33 µM | SK-OV-3 44.5 µM | UACC-62 17 µM | HOP-62 30.6 µM | NCI/ADR-RES > 57.1 µM | UACC-257 8.47 µM | HCT-116 25.6 µM | SNB-19 70.1 µM | CAKI-1 45 µM | RXF 393 > 59.8 µM | A498 14.2 µM | Malme-3M > 42.9 µM | M14 > 100 µM | OVCAR-3 24.8 µM | SF-539 13 µM | MDA-MB-231 39.7 µM | TK-10 > 48.3 µM | BT-549 > 33.6 µM | HT-29 > 100 µM
